Laboratory results: US9662327B2 (AGIOS PHARMACEUTICALS, INC, priority 2011, dated 2017)
Blank lines part the entries; values can stand above or below the molecule they belong to.

Assays:
IDH1 R132H = IDH1 R132H (Homo sapiens (Human), UniProt O75874, R132H); test: Assays for IDH1 R132H Inhibitors (NADPH/aKG, resazurin detection); assay type: biochemical; conditions: IDH1 R132H enzyme, Table 3; read-out: R132H IC50
Method in brief: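 Substrate mix held 8 uM NADPH plus 2 mM aKG; buffer was 20 mM Tris pH 7.5 with 150 mM NaCl, 10 mM MgCl2, 0.03% BSA. After 50 min room-temperature reaction, NADPH remaining was detected with 30 μM resazurin mix over 5 min.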

HT1080 cells = test: Cellular assay for IDH1m inhibitors: inhibition of 2-HG production in HT1080 cells (LC-MS); assay type: cell-based; conditions: Homo sapiens, HT-1080, 48 hours
Experimental: (§1) Cells (e.g., HT1080 or U87MG) are grown in T125 flasks in DMEM containing 10% FBS, 1× penicillin/streptomycin and 500 ug/mL G418. They are harvested by trypsin and seeded into 96 well white bottom plates at a density of 5000 cell/well in 100 ul/well in DMEM with 10% FBS. No cells are plates in columns 1 and 12. Cells are incubated overnight at 37 C in 5% CO2. The next day compounds are made up at 2× concentration and 100 ul are added to each cell well. The final concentration of DMSO is 0.2% and the DMSO control wells are plated in row G. The plates are then placed in the incubator for 48 hours. At 48 hours, 100 ul of media is removed from each well and analyzed by LC-MS for 2-HG concentrations. The cell plate is placed back in the incubator for another 24 hours. At 72 hours post compound addition, 10 mL/plate of Promega Cell Titer Glo reagent is thawed and mixed. The cell plate is removed from the incubator and allowed to equilibrate to room temperature. Then 100 ul of reagent is added to each well of media. The cell plate is then placed on an orbital shaker for 10 minutes and then allowed to sit at room temperature for 20 minutes. The plate is then read for luminescence with an integration time of 500 ms.

U87R132H (U87MG) cells = test: Cellular assay for IDH1m inhibitors: inhibition of 2-HG production in U87MG (U87R132H) cells (LC-MS); assay type: cell-based; conditions: Homo sapiens, U-87 MG, 48 hours
Experimental: as §1

Chain of IDH1 R132H (O75874 whole entry R132H): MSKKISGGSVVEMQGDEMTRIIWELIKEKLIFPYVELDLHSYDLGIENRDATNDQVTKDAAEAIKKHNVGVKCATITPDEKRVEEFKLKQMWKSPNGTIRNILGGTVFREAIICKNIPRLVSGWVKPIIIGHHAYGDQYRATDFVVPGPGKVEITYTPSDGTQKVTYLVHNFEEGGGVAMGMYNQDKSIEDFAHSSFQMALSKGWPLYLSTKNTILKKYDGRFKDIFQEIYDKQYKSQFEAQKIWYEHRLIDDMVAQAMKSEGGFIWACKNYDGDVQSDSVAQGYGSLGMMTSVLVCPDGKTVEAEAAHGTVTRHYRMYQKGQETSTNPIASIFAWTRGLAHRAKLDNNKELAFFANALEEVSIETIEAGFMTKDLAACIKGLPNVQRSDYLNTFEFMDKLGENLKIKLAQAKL

SMILES: CC(C)[C@@H]1CN(c2nc(C3CC3)c3c(c2C#N)CC(C)(C)OC3)CCN1C(=O)CCF [Compound 437, (R)-8-cyclopropyl-6-(4-(3-fluoropropanoyl)-3-isopropylpiperazin-1-yl)-3,3-dimethyl-3,4-dihydro-1H-pyrano[3,4-c]pyridine-5-carbonitrile]
- IC50 (IDH1 R132H): < 0.5 µM
- IC50 (HT1080 cells): 1 to 10 µM
- IC50 (U87R132H (U87MG) cells): 1 to 10 µM

SMILES: COC(=O)CC(=O)N1CCN(c2nc(C3CC3)c3c(c2C#N)CC(C)(C)OC3)C[C@H]1C1CC1 [Compound 440, (R)-methyl 3-(4-(5-cyano-8-cyclopropyl-3,3-dimethyl-3,4-dihydro-1H-pyrano[3,4-c]pyridin-6-yl)-2-cyclopropylpiperazin-1-yl)-3-oxopropanoate]
- IC50 (IDH1 R132H): < 0.5 µM
- IC50 (HT1080 cells): < 0.5 µM
- IC50 (U87R132H (U87MG) cells): < 0.5 µM

SMILES: [2H]C([2H])([2H])C([2H])(C([2H])([2H])[2H])[C@@]1([2H])N(C(=O)CCOC)C([2H])([2H])C([2H])([2H])N(c2nc(C3CC3)c3c(c2C#N)CC(C)(C)OC3)C1([2H])[2H] [Compound 441, (R)-8-cyclopropyl-6-(2,2,3,3,5,6,6-heptadeuterio-4-(3-methoxypropanoyl)-5-(perdeuteriopropan-2-yl)piperazin-1-yl)-3,3-dimethyl-3,4-dihydro-1H-pyrano[3,4-c]pyridine-5-carbonitrile]
- IC50 (IDH1 R132H): < 0.5 µM
- IC50 (HT1080 cells): < 0.5 µM
- IC50 (U87R132H (U87MG) cells): < 0.5 µM

SMILES: CC(O)CC(=O)N1CCN(c2nc(C3CC3)c3c(c2C#N)CC(C)(C)OC3)C[C@H]1C1CC1 (stereo partly drawn) [Compound 442, 8-cyclopropyl-6-((3R)-3-cyclopropyl-4-(3-hydroxybutanoyl)piperazin-1-yl)-3,3-dimethyl-3,4-dihydro-1H-pyrano[3,4-c]pyridine-5-carbonitrile]
- IC50 (IDH1 R132H): < 0.5 µM
- IC50 (HT1080 cells): 0.5 to 1 µM
- IC50 (U87R132H (U87MG) cells): 0.5 to 1 µM

SMILES: CSCC(=O)N1CCN(c2nc(C3CC3)c3c(c2C#N)CC(C)(C)OC3)C[C@H]1C(C)C [Compound 445, (R)-8-cyclopropyl-6-(3-isopropyl-4-(2-(methylthio)acetyl)piperazin-1-yl)-3,3-dimethyl-3,4-dihydro-1H-pyrano[3,4-c]pyridine-5-carbonitrile]
- IC50 (IDH1 R132H): < 0.5 µM
- IC50 (HT1080 cells): < 0.5 µM
- IC50 (U87R132H (U87MG) cells): < 0.5 µM

Other lines, results leading:

- IC50 (IDH1 R132H): < 0.5 µM
- IC50 (HT1080 cells): < 0.5 µM
- IC50 (U87R132H (U87MG) cells): < 0.5 µM
SMILES: [2H]C1([2H])CN(c2nc(C3CC3)c3c(c2C#N)CC(C)(C)OC3)C([2H])([2H])[C@@]([2H])(C([2H])(C([2H])([2H])[2H])C([2H])([2H])[2H])N1C(=O)CCOC [Compound 438, (R)-8-cyclopropyl-3,3-dimethyl-6-(2,2,3,5,5-pentadeuterio-4-(3-methoxypropanoyl)-3-(perdeuteriopropan-2-yl)piperazin-1-yl)-3,4-dihydro-1H-pyrano[3,4-c]pyridine-5-carbonitrile]

- IC50 (IDH1 R132H): < 0.5 µM
- IC50 (HT1080 cells): 1 to 10 µM
- IC50 (U87R132H (U87MG) cells): 1 to 10 µM
SMILES: CC(C)[C@@H]1CN(c2nc(C3CC3)c3c(c2C#N)CC(C)(C)OC3)CCN1C(=O)CCCO [Compound 443, (R)-8-cyclopropyl-6-(4-(4-hydroxybutanoyl)-3-isopropylpiperazin-1-yl)-3,3-dimethyl-3,4-dihydro-1H-pyrano[3,4-c]pyridine-5-carbonitrile]

- IC50 (IDH1 R132H): < 0.5 µM
- IC50 (HT1080 cells): < 0.5 µM
- IC50 (U87R132H (U87MG) cells): < 0.5 µM
SMILES: [2H]C1([2H])CN(C(=O)CCOC)[C@]([2H])(C([2H])(C([2H])([2H])[2H])C([2H])([2H])[2H])CN1c1nc(C2CC2)c2c(c1C#N)CC(C)(C)OC2 [Compound 444, (R)-8-cyclopropyl-3,3-dimethyl-6-(2,2,5-trideuterio-4-(3-methoxypropanoyl)-5-(perdeuteriopropan-2-yl)piperazin-1-yl)-3,4-dihydro-1H-pyrano[3,4-c]pyridine-5-carbonitrile]

- IC50 (IDH1 R132H): < 0.5 µM
- IC50 (HT1080 cells): < 0.5 µM
- IC50 (U87R132H (U87MG) cells): < 0.5 µM
SMILES: [2H]C([2H])([2H])C([2H])(C([2H])([2H])[2H])[C@@]1([2H])N(C(=O)CCC(=O)OC)C([2H])([2H])C([2H])([2H])N(c2nc(C3CC3)c3c(c2C#N)CC(C)(C)OC3)C1([2H])[2H] [Compound 450]

- IC50 (IDH1 R132H): < 0.5 µM
- IC50 (HT1080 cells): 1 to 10 µM
- IC50 (U87R132H (U87MG) cells): 0.5 to 1 µM
SMILES: [2H]C([2H])([2H])C([2H])(C([2H])([2H])[2H])[C@@]1([2H])N(C(=O)CC(F)(F)F)C([2H])([2H])C([2H])([2H])N(c2nc(C3CC3)c3c(c2C#N)CC(C)(C)OC3)C1([2H])[2H] [Compound 452, (R)-8-cyclopropyl-6-(2,2,3,3,5,6,6-heptadeuterio-5-(perdeuteriopropan-2-yl)-4-(3,3,3-trifluoropropanoyl)piperazin-1-yl)-3,3-dimethyl-3,4-dihydro-1H-pyrano[3,4-c]pyridine-5-carbonitrile]
